The values below come from US8569481B2, “Capture compounds, collections thereof and methods for analyzing the proteome and complex compositions” (Pharmaceuticals, Inc., priority 2001, dated 2013).

SMILES strings stand for the structures.

The target in the experiment is Cytochrome C (Bos taurus, UniProt P62894). In words: Time course reaction of cytochrome C with a non-specific capture compound, analyzed by MALDI-TOF mass spectrometry. It counts as binding. From the text:
Four different capture compounds (designated HKC 1341 (2,5-dioxopyrrolidin-1-yl acetate), HKC 1343 (2,5-dioxopyrrolidin-1-yl 4-(hydroxybis(4-methoxyphenyl)methyl)benzoate), HKC 1349 (1-(4-((3-(2-hydroxyethoxy)phenyl)(phenyl)(3-phenylpropoxy)methyl)benzoyl)-1H-pyrrole-2,5-dione), and HKC 1365 (3-((4-((2,5-dioxopyrrolidin-1-yloxy)carbonyl)phenyl)diphenylmethoxy)propane-1,2-diyl dipalmitate)) were reacted individually with Cytochrome C (accession number: P00006, FIG. 20c). The capture experiments were analyzed using MALDI-TOF Mass Spectrometry. Binding was performed in 20 μL sample volumes with 5 μM Cytochrome C concentrations in 25 mM HEPES buffer solution, pH 7.0. The trityl-based capture compounds were added to the protein solution at a 10 μM concentration. […] The reaction was quenched using 1 μL of a 100 mM TRIZMA base solution. The capture compound-protein binding mixture was prepared for mass spectrometry analysis by mixing a 1 μL aliquot of the binding reaction with 1 μL of a 10 mg/mL sinapinic acid in 30% aqueous acetonitrile. The sample was deposited as a […] spot on the surface of mass target plates and subsequently air-dried before mass spectrometric analyses.

Chain of Cytochrome C (P62894 whole entry): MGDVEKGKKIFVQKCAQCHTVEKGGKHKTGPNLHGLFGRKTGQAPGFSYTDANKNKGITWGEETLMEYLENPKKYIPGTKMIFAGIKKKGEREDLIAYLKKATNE

For the molecule `CC(=O)ON1C(=O)CCC1=O` [HKC 1341, 2,5-dioxopyrrolidin-1-yl acetate], the “modifications of cytochrome C resulting from binding of the capture compound” value by setting is: (after 30 minutes (middle spectrum, FIG. 20f)) 1-9; (time 0 (top spectrum, FIG. 20f)) “no modification”.
